Results on five molecules are retold here after US6693073B2, “Pulmonary delivery of active agents” (Emisphere Technologies, Inc., priority 1998, dated 2004).

Data set [1] can be described thus: Serum insulin after pulmonary instillation of insulin with carrier compound (Example 4). It counts as in vivo, rat. The settings on record: rats, spray instillation into airway; insulin 0.03 mg/kg with carrier compound 16 mg/kg. The protocol: Carrier compound B, carrier compound C sodium salt, and carrier compound D in Table 10 were tested as follows.
An endotracheal tube (spray instillator from Penn Century of Philadelphia, Pa.) with a syringe (Hamilton syringe) attached to the endotracheal tube was inserted using a fiber optic laryngoscope.

Data set [2] is described as follows: Solubility of carriers. In kind it is physicochemical. The settings on record: water, thermodynamic from solid; clear solution, pH 6.85.
The subject of data set [3] is plasma glucose. In words: Plasma glucose pharmacodynamics after lung spray-IT instillation to rats. It counts as in vivo, Sprague Dawley female rats. The protocol: Determination of fasting plasma glucose levels was performed using the Ektachem DT Slide (GLU) method. The analysis is based on the enzyme-catalyzed reaction of glucose with molecular oxygen, followed by a second reaction that produces a highly-colored red dye. The intensity of the color is proportional to the amount of glucose in the sample.
The percentage minimum plasma glucose concentration (%MPGC) and the time T to attain each %MPGC (T%MPGC) were determined from the average plasma glucose levels versus-time profiles for the treatments.
The area above the curve effect (AACE) was calculated as follows:
AACE=Total area−AUCE (Eq.2)
where AUCE represents the area under the curve effect calculated using the trapezoidal rule.
The percentage total reduction in plasma glucose from 0→t (%TRPG 0→t) was determined using the following equation:
%TRPG0→t=100(AACE/total area) (Eq.3)

For data set [4] the following is noted: rat, in vivo.
Experimental: Each rat was weighed and identified using an indelible marker and anesthetized by intraperitoneal injection of ketamine: Xylazine: Acepromazine cocktail, at 80 mg/kg, 10 mg/kg and 2.0 mg/kg, respectively and returned to its cage. The rat was transferred to the surgical bench and placed on a heating blanket thermostatically controlled via rectal probe, once deep anesthesia was achieved.
The right jugular vein of each rat was catheterized using silicone tubing and the patency of the catheter was confirmed by slowly flushing the cannula with 200 μl heparin saline and then withdrawing 100 μl of blood. The cannula was then cleared with 200 μl of heparinized saline solution.
An endotrachcal tube was inserted using a fiber optic laryngoscope. The syringe (Hamilton syringe) of the instillator was attached to the endotracheal tube and used to instill solution (100 μl) in the airways. The endotracheal tube was removed following administration, and the breathing rate was monitored throughout the remainder of the study.
Blood samples (500 μl) were withdrawn at 0, 10, 30, 60, 90, 120 and 180 min and the cannula flushed with approximately 200 μl of heparinized saline solution. The blood was collected in 1 ml tuberculin syringes (containing 100 μl heparin 20 μ/ml) placed directly into microcentrifuge tubes.
Blood samples were immediately centrifuged at 10 000 rpm for 4 min.
Average insulin plasma concentrations over time were subjected to standard compartmental and non-compartmental pharmacokinetic analysis.
Average concentrations of insulin were fitted to the following equation:
CPins=A(e^−ke 1+e^−ka 1) (Eq.1)
where A=D ka/Vd (ka−ke) is the concentration of drug in the body at time zero, ka is the first order absorption rate constant, ke is the first order elimination rate constant.
The area under the lung concentration-time curve (AUC0−1) was calculated by the trapezoidal rule. Interpolation to infinity was performed by dividing the last Cins measured by the first-order rate constant of the terminal phase. The total area under the curve was estimated by the summation of these two compounds.
The elimination half-life was calculated from 0.693/ke where ke is the slope of the terminal phase of the log of the concentration-time profile.
The non-compartment analysis for insulin plasma concentrations over time was performed using standard techniques. The time to peak CPins (Tmax) and peak CPins (Cmax) were determined from the non-fitted average plasma concentrations (CPins) versus-time profiles for the treatments. AUC was calculated by the trapezoidal rule. MRT was not calculated due to a lack of data following intravenous administration from which to calculate pharmacokinetic parameters.
[5] abbreviates: lung spray-IT, insulin 0.01 mg/kg alone.
[6] abbreviates: lung spray-IT, insulin 0.05 mg/kg alone.
The mark [7] stands for this setting: spray-IT, porcine insulin 0.01 mg/kg, Table 3.
Setting [8] is: spray-IT, porcine insulin 0.05 mg/kg, Table 3.
Setting [9] is: spray-IT, porcine insulin 0.1 mg/kg, Table 3.
Setting [10] is: spray-IT, porcine insulin 0.5 mg/kg, Table 3.
[11] abbreviates: spray-IT, porcine insulin 1.0 mg/kg, Table 3.

Read-outs that look alike come from different tables or passages of the source.

`CC(C(=O)O)c1ccc(NC(=O)c2ccccc2O)cc1` (stereo not drawn) [Carrier B, 2-(4-(N-salicyloyl)aminophenyl) propionic acid]: the “Cmax (serum insulin)” value in data set [1] was determined as 44.6 ± 10.0 μU/ml.

Regarding `COc1cccc(C(=O)Nc2ccc(CCC(=O)[O-])cc2)c1OC.[Na+]` [Carrier C sodium salt], the “Cmax (serum insulin)” value in data set [1] is 22.5 ± 4.0 μU/ml.

`Cc1ccc(C(=O)NCCCCCCCC(=O)O)c(O)c1` [Carrier D, N-(4-methylsalicyloyl)-8-aminocaprylic acid] came in with a melting point of 113 to 114 °C. Further, in data set [1], the “Cmax (serum insulin)” value was found to be 58.8 ± 12.0 μU/ml.

In the case of `CC(C(=O)[O-])c1ccc(NC(=O)c2ccccc2O)cc1.[Na+]` (stereo not drawn) [Sodium Salt of Carrier B, Sodium 2-(4-(N-salicyloyl)aminophenyl)propionate], in data set [2], the solubility came out at 200 mg/mL.

As to “Porcine Insulin: Lyophilized porcine insulin 25.9 IU/mg (Emisphere Technologies)”, the “% MPGC” value turned out to be 70.02% in data set [3] (setting [5]); 35.7% in data set [3] (setting [6]); 70.2% in data set [3] (setting [7]); 35.69% in data set [3] (setting [8]); 35.3% in data set [3] (setting [9]); 30.6% in data set [3] (setting [10]). Further, the “% MPGC” value in data set [3] (setting [11]) is 13.1%. In addition, the “% TRPG0-3 hr” value in data set [3] (setting [5]) turned out to be 10.5±1.5%; in data set [3] (lung spray-IT, insulin 0.01 mg/kg alone, listed as Insulin alone) it was 10.5 ± 1.5%; in data set [3] (setting [6]), 47±10%; in data set [3] (lung spray-IT, insulin 0.05 mg/kg alone, listed as Insulin alone), 47 ± 10%. The AACE0-t in data set [3] (setting [5]) was 1892 ± 989 mcU/min/ml; in data set [3] (setting [6]), 8497 ± 1716 mcU/min/ml. The “T % MPGC” value is on record as 180 min in data set [3] (setting [5]); 120 min in data set [3] (setting [6]); 180 in data set [3] (setting [7]); 120 in data set [3] (setting [8]); 120 in data set [3] (setting [9]); 60 in data set [3] (setting [10]). Moreover, in data set [3] (setting [11]), the “T % MPGC” value is recorded as 120. Further, the “% TRPG0→3 hr” value in data set [3] (setting [7]) came out at 10.5 ± 1.5%; in data set [3] (spray-IT, porcine insulin 0.01 mg/kg, Table 3, listed as insulin), 10.5%; in data set [3] (setting [8]), 47.2 ± 9.5%; in data set [3] (setting [9]) it was 50.5 ± 12.7%; in data set [3] (setting [10]) it was 54.5 ± 6.5%; in data set [3] (setting [11]), 73.7 ± 3.1%. The “% TRPG0→3 hr” value in data set [3] (spray-IT, porcine insulin 1.0 mg/kg, Table 3, listed as insulin) is 73.7%. Besides, the AACE0→t came out at 1892 ± 989 μU · min/ml in data set [3] (setting [7]); 8497 ± 1716 μU · min/ml in data set [3] (setting [8]); 9102 ± 2295 μU · min/ml in data set [3] (setting [9]); 10205 ± 1173 μU · min/ml in data set [3] (setting [10]); 13266 ± 570 μU · min/ml in data set [3] (setting [11]). The “half-life of decline in plasma concentrations” value in data set [4] was 27.8 to 142.4 min. For the same molecule, the “t½ (abs)” value in data set [4] (0.001 mg/kg) was found to be 27.8 min; in data set [4] (0.005 mg/kg), 42.6 min. Besides, the “t½ (elim)” value in data set [4] (0.001 mg/kg) and in data set [4] (0.005 mg/kg) was 3.0 min in each case. Moreover, the tmax in data set [4] (0.01 mg/kg) is 10 min; in data set [4] (0.05 mg/kg), 10 min; in data set [4] (0.1 mg/kg), 10 min; in data set [4] (0.5 mg/kg), 30 min; in data set [4] (1 mg/kg), 30 min. Moreover, the AUC is listed as 9517.5 in data set [4] (0.1 mg/kg), 60345 in data set [4] (0.5 mg/kg) and 178143.5 in data set [4] (1 mg/kg). The relative bioavailability in data set [4] (sc) amounted to 12.46%.

In general, melting point refers to the temperature of the solid-liquid transition. For orientation: solubility means the concentration that dissolves in the medium under given conditions. A high value points to a readily soluble substance.
